Data published in patent US20130131018A1, “SUBSTITUTED ISOQUINOLINES AND THEIR USE AS TUBULIN POLYMERIZATION INHIBITORS” (Exonhit S.A., priority 2010, published 2013).
Counter-ions that a name gives are not always drawn. Like-named read-outs stand apart in the source and are kept apart here.

Legend:
K562 cell line = assay: MTT assay: cytotoxicity against the K562 cell line; format: cell-based; details: K562 cells, 72 h, growth inhibition
Method: Assessment of Cell Viability via MTT Assay: Cytotoxicity of compounds against the K562 cell line was assessed using the [3-(4,5-dimethylthiazol-2-yl)-2,5-diphenyl tetrazolium bromide] (MTT) assay. Fifteen thousand tumor cells were seeded into wells of flat-bottomed 96-well plates. An amount of 2 μL of a dilution series of each compound dissolved in DMSO was added to 198 μL of appropriate growth medium at three replicates per concentration and the plates were incubated in a 5% CO2 incubator at 37° C. After 72 h, the number of metabolically active cells was determined by MTT assay. Absorbance of each well was measured at 550 nm on a Tecan Sunrise reader. Dose-response curves for growth inhibition were generated as a percentage of untreated control. IC50 was determined by nonlinear regression (Prism, Graph Pad Software, Inc.).

purified tubulin = target: T1, purified tubulin (Sus scrofa, UniProt P02550+P02554); assay: Tubulin polymerisation assay (CytoDYNAMIX Screen kit, absorbance at 340 nm); format: biochemical; details: for inhibition at 5 µM / % Inhibition of tubulin polymerization at 5 μM: 5 μM compound, 4 mg/ml tubulin; for inhibition at 5 µM: read-out: % Inhibition of tubulin polymerization at 5 μM; for IC50: tubulin polymerization
T1 construct: purchased Cytoskeleton #BK006P
T1 sequence (P02554 whole entry): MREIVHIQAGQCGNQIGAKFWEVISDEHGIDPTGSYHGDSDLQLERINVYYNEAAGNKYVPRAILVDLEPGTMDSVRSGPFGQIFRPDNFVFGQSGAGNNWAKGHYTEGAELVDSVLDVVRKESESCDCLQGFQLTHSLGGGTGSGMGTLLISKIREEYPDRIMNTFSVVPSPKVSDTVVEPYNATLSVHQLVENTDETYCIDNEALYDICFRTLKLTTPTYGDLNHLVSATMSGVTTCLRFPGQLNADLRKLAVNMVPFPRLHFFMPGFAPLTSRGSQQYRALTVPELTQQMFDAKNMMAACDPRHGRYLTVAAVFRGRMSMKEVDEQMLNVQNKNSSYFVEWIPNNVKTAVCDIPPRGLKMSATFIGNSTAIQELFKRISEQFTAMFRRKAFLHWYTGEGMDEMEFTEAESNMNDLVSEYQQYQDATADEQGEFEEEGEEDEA
T1 sequence (P02550 whole entry): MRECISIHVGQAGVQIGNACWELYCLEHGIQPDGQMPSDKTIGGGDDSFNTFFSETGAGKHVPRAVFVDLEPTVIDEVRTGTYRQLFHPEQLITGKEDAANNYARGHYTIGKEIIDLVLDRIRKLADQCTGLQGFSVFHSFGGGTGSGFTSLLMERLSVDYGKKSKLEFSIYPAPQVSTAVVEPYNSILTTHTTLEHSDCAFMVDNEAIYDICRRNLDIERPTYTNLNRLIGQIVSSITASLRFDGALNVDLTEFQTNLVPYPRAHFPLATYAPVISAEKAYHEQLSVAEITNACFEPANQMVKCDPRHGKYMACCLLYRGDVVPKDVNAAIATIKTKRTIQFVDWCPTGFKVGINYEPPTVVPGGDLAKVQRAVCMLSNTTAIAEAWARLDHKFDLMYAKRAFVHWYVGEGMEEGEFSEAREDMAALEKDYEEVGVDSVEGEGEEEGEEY
Method: The polymerization of purified tubulin was monitored spectrophotometrically by the change in absorbance at 340 nm using the CytoDYNAMIX Screen kit (#BK006P, Cytoskeleton) according to the instructions of the manufacturer. […] The absorbance was measured at 1 minute intervals for 60 minutes. The test compound was added to a 4 mg/ml tubulin solution containing 10% glycerol and 1 mM GTP in Buffer 1 (Buffer 1: 80 mM PIPES; 2 mM MgCl2; 0.5 mM EGTA, pH 6.9). Increased absorbance indicates increase in microtubule formation from tubulin heterodimers.

[1] = target: T2, colchicine site on tubulin (biotinylated porcine tubulin) (Sus scrofa, UniProt P02550+P02554); assay: Tubulin displacement assay (3H-colchicine radioligand binding, SPA)
T2 construct: biotin (chemical label)
T2 sequence (P02554 whole entry): as the sequence (P02554 whole entry) above
T2 sequence (P02550 whole entry): as the sequence (P02550 whole entry) above
Method: The assay was developped following the method published by Tahir et al. (2001) and others using biotinylated porcine tubulin captured to streptavidin coated yttrium silicate scintillation proximity assay (YSi SPA) beads in a PIPES/EGTA/MgCl2/GTP buffer. […] IC50s were determined using GraphPad Prism Version 5.01 and the sigmoidal dose response with variable slope curve fit.

[2] = tested on: Endothelial cells (HUVEC); assay: Neovessels formation inhibition (capillary tube formation on Matrigel); format: cell-based
Method: The capability of compounds to inhibit the formation of capillaries was evaluated in vitro. Twenty thousand Endothelial cells (HUVEC) were placed on a Matrigel matrix and allowed to form capillary tubes in the presence or absence of the compounds overnight. The cells were stained with calcein AM, and the effect of the compounds on capillary tube formation was assessed using an inverted fluorescent microscope (Nikon). The reference compound used in this assay AVE-8063 is 3-amino-deoxycombretastatin A-4.

HUVEC = assay: Pre-established vessels disruption (capillary tubes on Matrigel); format: cell-based; details: HUVEC tubes formed 5 hours, then compounds overnight
Method: To explore the effect of the compounds on pre-established vasculature, twenty thousand cells (HUVEC) were seeded and incubated over Matrigel for 5 hours to allow the capillary tubes to form. Then, compounds were added and incubated overnight. The disappearance of existing vasculature was monitored with fluorescent microscopy.

[3] = competition with 50 nM [3H]-colchicine, 4 h at 37° C., read-out: IC50
[4] = Homo sapiens, HUVEC on Matrigel, compounds overnight, read-out: Neovessels Formation Inhibition Number of Branch Junctions IC50
[5] = Homo sapiens, HUVEC on Matrigel, compounds overnight, read-out: Neovessels Formation Inhibition Total Tubule Length IC50
[6] = Homo sapiens, read-out: Pre-established Vessels Disruption Number of Branch Junctions IC50
[7] = Homo sapiens, read-out: Pre-established Vessels Disruption Total Tubule Length IC50
[8] = HUVEC on Matrigel, compounds overnight, read-out: Neovessels Formation Inhibition Number of Branch Junctions IC50
[9] = HUVEC on Matrigel, compounds overnight, read-out: Neovessels Formation Inhibition Total Tubule Length IC50
[10] = read-out: Pre-established Vessels Disruption Number of Branch Junctions IC50
[11] = read-out: Pre-established Vessels Disruption Total Tubule Length IC50

SMILES | IC50 (K562 cell line; Homo sapiens) | inhibition at 5 µM (purified tubulin) | IC50 [1, 3] | IC50 [2, 4] | IC50 [2, 5] | IC50 (HUVEC; [6]) | IC50 (HUVEC; [7]) | IC50 (purified tubulin) | IC50 (K562 cell line) | % Inhibition of tubulin polymerization at 5 μM (purified tubulin) | IC50 [2, 8] | IC50 [2, 9] | IC50 (HUVEC; [10]) | IC50 (HUVEC; [11]) | IC50 [1] | IC50 ([2]; Homo sapiens, HUVEC, read-out: Neovessels Formation Inhibition Number of Branch Junctions IC50 (nM)) | IC50 ([2]; Homo sapiens, HUVEC, read-out: Neovessels Formation Inhibition Total Tubule Length IC50 (nM))
CCOc1ccc2c(C(=O)c3cc(OC)c(OC)c(OC)c3)cncc2c1OC(C)=O [Compound 96, 7-Ethoxy-4-(3,4,5-trimethoxybenzoyl)isoquinolin-8-yl acetate] | 5.85 nM | 54.5% | 3300 nM | 5.07 nM | 8.1 nM | 9.14 nM | 15.3 nM |  |  |  |  |  |  |  |  |  | 
CCOc1ccc2c(Cc3cc(OC)c(OC)c(OC)c3)cncc2c1O [Compound 1, 4-(3,4,5-Trimethoxybenzyl)-7-ethoxyisoquinolin-8-ol hydrochloride] | 29.1 nM | 85% | 220 nM | 38.5 nM | 54.5 nM |  |  | 1190 nM |  |  |  |  |  |  |  |  | 
COc1cc(C(=O)c2c(C)oc3c(O)c(OC)ccc23)cc(OC)c1OC [BNC105, reference compound] |  |  |  |  |  |  |  | 1780 nM | 0.55 nM | 64.75% | 1.76 nM | 2.49 nM | 5.2 nM | 6.37 nM |  |  | 
CCOc1ccc2c(C(=O)c3cc(OC)c(OCC)c(OC)c3)cncc2c1N [Compound 58, (8-amino-7-ethoxyisoquinolin-4-yl)(4-ethoxy-3,5-dimethoxyphenyl)methanone hydrochloride] | 1.23 nM | 38.2% |  | 0.53 nM | 0.59 nM | 0.99 nM | 1.36 nM | 3490 nM |  |  |  |  |  |  |  |  | 
CCOc1ccc2c(C(=O)c3cc(OC)c(OC)c(OC)c3)cncc2c1O [Compound 97, (7-Ethoxy-8-hydroxyisoquinolin-4-yl)(3,4,5-trimethoxyphenyl)methanone hydrochloride] | 4.86 nM | 4% | 41.4 nM | 4.04 nM | 5.52 nM | 6.65 nM | 8.82 nM |  |  |  |  |  |  |  |  |  | 
CCOc1ccc2c(C(=O)c3cc(OC)c(OC)c(OC)c3)cncc2c1N [Compound 29, (8-Amino-7-ethoxyisoquinolin-4-yl)(3,4,5-trimethoxyphenyl)methanone hydrochloride] | 1.64 nM | 71.3% |  | 1.04 nM | 1.47 nM | 1.78 nM | 2.26 nM | 880 nM |  |  |  |  |  |  |  |  | 
CCOc1ccc2c(C(=O)c3cc(OC)c(OC)c(OC)c3)cncc2c1NS(N)(=O)=O [Compound 105, N-(7-Ethoxy-4-(3,4,5-trimethoxybenzoyl)isoquinolin-8-yl)sulfamide hydrochloride] | 4.18 nM | 35% |  | 5.71 nM | 8.06 nM | 9.27 nM | 9.3 nM |  |  |  |  |  |  |  |  |  | 
CC[C@]1(O)C[C@@H]2CN(CCc3c([nH]c4ccccc34)[C@@](C(=O)OC)(c3cc4c(cc3OC)N(C)[C@H]3[C@@](O)(C(=O)OC)[C@H](OC(C)=O)[C@]5(CC)C=CCN6CC[C@]43[C@@H]65)C2)C1 [Vinblastine, reference compound] | 3.66 nM | 77.7% |  | 1.55 nM | 3.44 nM | 2.09 nM | 5.39 nM | 1050 nM |  |  |  |  |  |  |  |  | 
COc1cc(Cc2cncc3c(OC)c(OC)ccc23)cc(OC)c1OC [Compound 10, 4-(3,4,5-Trimethoxybenzyl)-7,8-dimethoxyisoquinoline hydrochloride] | 283 nM |  | 1600 nM |  |  |  |  | 3440 nM |  |  |  |  |  |  |  |  | 
COc1ccc(/C=C\c2cc(OC)c(OC)c(OC)c2)cc1NC(=O)[C@@H](N)CO [AVE8062, reference compound] | 7.78 nM | 59.8% |  | 13.9 nM | 15.4 nM | 32.5 nM | 52.9 nM | 1790 nM |  |  |  |  |  |  |  |  | 
CCOc1ccc2c(C(=O)c3cc(OC)c(OCC)c(OC)c3)cncc2c1NS(N)(=O)=O [Compound 59, 7-Ethoxy-4-(4-ethoxy-3,5-dimethoxybenzoyl)isoquinolin-8-yl sulfamide] | 7.04 nM | 21.5% | 745 nM | 8.32 nM | 25.2 nM | 27.1 nM | 38.2 nM |  |  |  |  |  |  |  |  |  | 
CCOc1ccc2c(Cc3cc(OC)c(OC)c(OC)c3)cncc2c1OS(N)(=O)=O [Compound 21, 4-(3,4,5-Trimethoxybenzyl)-7-ethoxyisoquinolin-8-yl sulfamate hydrochloride] | 36.9 nM | 65.8% |  | 47.3 nM | 52.8 nM | 26.7 nM | 60.5 nM | 1090 nM |  |  |  |  |  |  |  |  | 
C=CCOc1c(OC)cc(Cc2cncc3c(O)c(OCC)ccc23)cc1OC [Compound 32, 4-(4-(Allyloxy)-3,5-dimethoxybenzyl)-7-ethoxyisoquinolin-8-ol hydrochloride] | 21.5 nM | 63.4% |  | 12.4 nM | 21.9 nM | 20 nM | 48.8 nM | 1500 nM |  |  |  |  |  |  |  |  | 
CCOc1ccc2c(Cc3cc(OC)c(OC)c(OC)c3)cncc2c1N [Compound 3, 7-Ethoxy-4-(3,4,5-trimethoxybenzyl)isoquinolin-8-amine dihydrochloride] | 10.7 nM | 76.6% | 170 nM | 15.3 nM | 21.8 nM | 14.9 nM | 45.6 nM | 1040 nM |  |  |  |  |  |  |  |  | 
COc1cc(C(=O)c2c(C)oc3c(OP(=O)([O-])O)c(OC)ccc23)cc(OC)c1OC.[Na+] [BNC105P, reference compound] |  |  |  |  |  |  |  | 4100 nM | 17.3 nM | 39.00% | 0.44 nM | 1.53 nM | 5.83 nM | 7.37 nM |  |  | 
CCCOc1c(OC)cc(Cc2cncc3c(N)c(OCC)ccc23)cc1OC [Compound 64, 4-(3,5-Dimethoxy-4-propoxybenzyl)-7-ethoxyisoquinolin-8-amine dihydrochloride] | 11.2 nM | 79.5% |  | 7.02 nM | 9.54 nM | 7.41 nM | 14.7 nM | 900 nM |  |  |  |  |  |  |  |  | 
CCOc1ccc2c(C(=O)c3cc(OC)c(OCC)c(OC)c3)cncc2c1OS(N)(=O)=O [Compound 57, 7-Ethoxy-4-(4-ethoxy-3,5-dimethoxybenzoyl)isoquinolin-8-yl sulfamate] | 2.69 nM | 17% | 91.9 nM | 2.65 nM | 3.97 nM | 4.37 nM | 6.72 nM |  |  |  |  |  |  |  |  |  | 
CCOc1ccc2c(C(=O)c3cc(OC)c(OC)c(OC)c3)cncc2c1OP(=O)(O)O [Compound 98, 7-ethoxy-4-(3,4,5-trimethoxybenzoyl)isoquinolin-8-yl disodium phosphate] | 7.57 nM | 49% |  |  |  | 9.22 nM | 15.1 nM |  |  |  |  |  |  |  | 121 nM | 3.68 nM | 6.5 nM
COc1ccc(/C=C\c2cc(OC)c(OC)c(OC)c2)cc1N [AVE8063, 3-amino-deoxycombretastatin A-4, reference compound] |  |  |  |  |  |  |  | 1070 nM | 2.71 nM | 71.29% | 3.12 nM | 5.33 nM | 5.72 nM | 7.74 nM |  |  | 
